Measurements reported in patent publication US20240285631A1, “METHODS OF TREATING VASCULAR MALFORMATIONS” (priority 2023, published 2024).

How the values were obtained:
HUVECs = test: Agilent Seahorse mitochondrial stress test in HUVECs; format: cell-based, human; set-up: dose or concentration left out as unconfirmed; settings: HUVECs pretreated with Palbociclib, vs control cells
From the text: FIG. 4C illustrates representative traces of oxygen consumption rate (OCR) measured by Seahorse assay of control vs. CDK4/6i-treated HUVECs in response to oligomycin (ATP synthase inhibitor), BAM15 (mitochondrial uncoupler) and Antimycin A/Rotenone (mitochondrial respiratory chain complex III and I inhibitors) (N=6 independent experiments, Data are mean±SEM **p≤0.01, ns p>0.05). Two-way ANOVA for independent measures with Bonferonni's correction for statistical analysis. p<0.05 was considered statistically significant. The normality and homogeneity of variances assumptions were tested using Shapiro-Wilk test (p>0.05) and Mauchly's test of sphericity respectively. Quantification of mitochondrial activity expressed as basal OCR (FIG. 4D) and respiratory capacity (FIG. 4E) in control vs. CDK4/6i-treated HUVECs. […]
HUVECs (70% confluent) were treated with Palbociclib (3 mg/ml) for 12 h in EGM™2-Bulletkit™ medium (CC-3156 & CC-4176, Lonza) prior to seeding onto a Seahorse 24-well tissue culture plate (Agilent Technologies) in EMB-2 media (CC-3162 Lonza) supplemented with 0.1% FBS and Palbociclib (3 mg/ml). […] Oxygen consumption rate (OCR) was measured using a Seahorse XF24 Flux Analyzer (Agilent Technologies). […] Basal respiration was calculated by subtracting the average of the first three measurements by the average of the post-Antimycin A & Rotenone measurements. […]

[1] = test system: vascular anomalies in lungs and intestinal tracts of anti-BMP9/10-treated pups; test: Blue latex dye vascular perfusion of lungs and duodenum in BMP9/10 Abs-treated pups; format: in vivo, mouse; settings: P7, BMP9/10 Abs + CDK4/6i
From the text: Vascular perfusion assessed using blue latex dye in lungs (FIGS. 10C-D), duodenum (FIGS. 10E-F) and brain (FIGS. 10G-H) from control, BMP9/10 Abs-treated, BMP9/10 Abs- and CDK4/6i-treated P7 animals. Lung samples have been clarified. Quantifications of intrapulmonary artery diameter (FIG. 10D) and intestinal capillary diameter (FIG. 10F). Red arrows indicate intestinal capillaries (N=3 to 7 animals/group. Data are mean±SEM, one-way ANOVA with Holm-Šidàk's multiple comparison test, **p≤0.01, *p≤0.05, ns p>0.05). […] We then analyzed the effects of BMP9/10 antibodies and CDK4/6i treatment on lungs, brains, and intestinal tracts, which are commonly affected by vascular malformations in HHT patients. To visualize vascular anomalies in these tissues, we performed intracardiac injections of blue latex silicon dye in P7 control, and anti-BMP9/10-treated pups, with or without CDK4/6i treatment following the dosing protocol as shown in FIG. 2A. […] P7 pups were deeply anesthetized with isoflurane using a nose cone and a thoracotomy was performed to expose the heart. For brain and gastrointestinal vasculature perfusions, the right atrium was cut and an insulin syringe (27 G) pre-filled with 1 ml of blue latex (VWR 470024-612) was inserted in the apex of the left ventricle to perfuse approximately 600 ml of latex. […]

[2] = test system: retinal arteries of anti-BMP9/10-treated animals; test: Arteriovenous identity immunostaining (JAGGED1, aSMA, ENDOMUCIN) of retinal flat-mounts, BMP9/10 Abs model; format: in vivo, mouse; settings: P7
From the text: FIG. 12A illustrates the timeline used for BMP9/10 Abs and CDK4/6i treatments in C57bl/6 pups. FIGS. 12B-F JAGGED1 (green) and IB4 (white) in (FIG. 12B), aSMA (green) and IB4 (white) staining in (FIG. 12D) and ENDOMUCIN (green) and IB4 (white) in (FIG. 12F) of retinal flat-mounts from control, BMP9/10 Abs-treated, BMP9/10 Abs- and CDK4/6i-treated P7 C57bl/6 animals. (A: artery; V: vein; white arrow heads: AVMs). Quantification of JAGGED1 fluorescence intensity in retinal arterial ECs (FIG. 12C), of aSMA arterial coverage (FIG. 12E) and ENDOMUCIN in retinal arteries (FIG. 12G) (N=4 animals/group, 10 to 14 region of interest analyzed/group. Data are mean±SEM, one-way ANOVA with Holm-Sidak's multiple comparison test, ns p>0.05; ***p<0.01). Scale bars: […].
Finally, we assessed the effects of Palbociclib treatment on arteriovenous identity in anti-BMP9/10-treated animals following the dosing protocol shown in FIG. 12A. […] Finally, ENDOMUCIN, which is enriched in veins and capillaries in control retinas, was ectopically expressed in arteries and AV shunts in the retinal vasculature of anti-BMP9/10-treated animals, compared to controls (FIGS. 12F and 12G).
Eyes from P7 pups were pre-fixed in 4% PFA for 20 min at room temperature (RT). The retinas were dissected out and permeabilized for 30 min at RT in 0.5% Triton X-100 and then incubated with antibodies in retina buffer (1% FBS, 3% BSA and 0.5% Triton X-100 in PBS1x) overnight at 4° C. Retinas were washed with PBS1X and incubated with secondary antibodies in retina buffer for 2 h at RT. Retinas were washed with PBS1X, mounted with DAKO mounting medium (DAKO) and imaged using confocal microscopy (LEICA SP8 and LASX software). Quantification of vascular progression, density, AVM numbers and vessel diameters in the retinal vasculature were performed with Image J software.

BMP9 signaling = test: Western Blot of BMP9-induced signaling in HUVECs; format: cell-based, human; settings: Palbociclib pre-treatment
Experimental: FIG. 8A illustrates Western Blot analysis of the phosphorylation of the indicated proteins in response to VEGF-A (1.5 nM) in control vs. CDK4/6i treated HUVECs. FIG. 8B illustrates Western Blot analysis of the phosphorylation of the indicated proteins in response to BMP9 (10 ng/ml) in control vs. CDK4/6i-treated HUVECs. FIG. 8C illustrates quantification of phosphorylation normalized to total protein levels. (N=5 independent experiments, Data are mean±SEM, Mann-Whitney U test: *p<0.05). […] FIG. 8E illustrates ENDOGLIN (green) and IB4 (white) staining of retinal flat-mounts from P5 Alk1^fl/fl, Alk1^fl/fl treated with CDK4/6i, Alk1EC^iKO, and Alk1EC^iKO treated with CDK4/6i animals (A: Artery; V: Vein). FIG. 8F illustrates quantification of fluorescence intensity of ENDOGLIN staining in (FIG. 8E) retinal venous vessels of the indicated animals (N=4 retinas per group. Data are mean±SEM, one-way ANOVA with Tukey's multiple comparison test: *p<0.05; ns p>0.05). FIG. 8G illustrates timeline used for Tx injection, and CDK4/6i and FLT1 blocking antibody treatment of Alk1EC^iKO pups. […]
Next, we treated HUVECs with Alk1 siRNA to silence Alk1 and test the VEGF-A-induced response, with or without Palbociclib treatment, using pAKT activation as a readout.

[3] = test system: AVMs induced by BMP9/10 blocking antibodies; test: Retinal vasculature analysis in BMP9/10 blocking antibody mouse model of HHT; format: in vivo; settings: BMP9/10 Abs P2 and P4
[4] = test system: retinal ECs of Alk1EC^iKO-Fucci2 pups; test: Endothelial cell cycle state in Alk1EC^iKO-Fucci2 pups; format: in vivo, mouse; settings: Alk1EC^iKO + CDK4/6i
From the text: All animal protocols and procedures were approved by the University of Virginia Animal Care and Use Committee and complied with all ethical regulations. Cdh5Cre^ERT21Rha^43 and Alk1^flox/flox were gifted from Drs. Ralf Adams and Paul Oh, respectively. R26p-Fucci2 (Fucci2) (Accession #CDB0203T)^44 and C57bl/6 mice were purchased from Riken and Jax, respectively. Cdh5Cre^ERT2 mice were crossed with Alk1^flox/flox mice (6-8-week-old) to generate Alk1EC^iKO pups. Cre activity in Alk1EC^iKO was induced in pups at P3 via a single intraperitoneal (i.p.) injection of Tamoxifen (Tx; Sigma T5648, […] of 4 mg/ml, resuspended in 10% ethanol and 90% corn oil). Alk1^flox/flox littermates were used as controls. Alk1EC^iKO mice were crossed with Fucci2 mice to generate Alk1EC^iKO-Fucci2 pups.

CC(=O)c1c(C)c2cnc(Nc3ccc(N4CCNCC4)cn3)nc2n(C2CCCC2)c1=O [Palbociclib, 6-acetyl-8-cyclopentyl-5-methyl-2-[5-(1-piperazinyl)pyridine-2-ylamino]pyrido[2,3-d]pyrimidin-7(8H)-one]
mitochondrial basal respiration (basal OCR) (HUVECs): significantly lower | respiratory capacity (OCR) (HUVECs): significantly lower | vasodilation of small capillaries perfusing the duodenum ([1]; duodenum): not prevented by CDK4/6i treatment | lung vascular anomalies and intrapulmonary artery diameter ([1]; lungs): significantly less vascular anomalies and intrapulmonary microvasculature vasodilation | JAG1 protein expression in retinal arterial ECs ([2]; BMP9/10 Abs + CDK4/6i vs BMP9/10 Abs only): increased in arterial ECs | ectopic arterial expression of ENDOMUCIN ([2]; BMP9/10 Abs + CDK4/6i): did not prevent the arterial expression of ENDOMUCIN | smooth muscle cell (aSMA) coverage of retinal arteries ([2]; BMP9/10 Abs + CDK4/6i): prevented the loss of SMC coverage on arteries | SMAD1/5/8 phosphorylation in response to BMP9 (BMP9 signaling): enhanced SMAD1/5/8 phosphorylation | arterial vessel diameter ([3]; CDK4/6i P4-P6, P7): not arterial vessel diameters | retinal vascular density ([3]; CDK4/6i P4-P6, P7): less hyperdense retinal vascular plexi | retinal vascular progression ([3]; CDK4/6i P4-P6, P7): normalized retinal vascular progression | venous vessel diameter ([3]; CDK4/6i P4-P6, P7): normalized | AV shunt number per retina ([3]; CDK4/6i oral gavage 120 mg/kg/d P4, P5, P6, retinas at P7, vs BMP9/10 Abs only): fewer AV shunts | percentage of ECs residing in the S/G2/M phases ([4]; tamoxifen P3, Palbociclib P4, P5): significantly lower in arteries and capillaries | proportion of ECs in late G1 state ([4]; arteries and capillaries): higher proportion of ECs in late G1 state | cell cycle state of venous ECs ([4]; veins): no significant effects on venous ECs
